Test results reported in patent publication US8058264B2, “Pharmaceutical compositions comprising CB1 cannabinoid receptor antagonists and potassium channel openers for the treatment of obesity and related conditions” (Abbott Products GmbH, priority 2004, dated 2011).

What was measured:
Kir6.2/SUR1 KATP channel = experiment: Opening of the Kir6.2/SUR1 KATP channel; format: biochemical
fatty Zucker rat = experiment: Acute oral glucose tolerance test (OGTT) in the fatty Zucker rat; format: in vivo; settings: acute administration (over a period of 1 day)
obese patients = settings: chronic treatment, e.g. over a period of 1 year; cited from earlier work

Compound: Cc1c(C(=O)NN2CCCCC2)nn(-c2ccc(Cl)cc2Cl)c1-c1ccc(Cl)cc1 [5-(4-chlorophenyl)-1-(2,4-dichlorophenyl)-4-methyl-N-piperidin-1-yl-1H-pyrazole-3-carboxamide]
- opener activity at the Kir6.2/SUR1 KATP channel (Kir6.2/SUR1 KATP channel): potent opener
- glucose plasma levels in OGTT (fatty Zucker rat): strong increase in glucose plasma levels
- insulin release in OGTT (fatty Zucker rat): significantly reduced inhibition of insulin release
- glucose tolerance and insulin resistance in obese patients (obese patients): improve glucose tolerance and insulin resistance
